Reference: US20250304644A1, “PEPTIDES TRIPLE AGONISTS OF GIP, GLP-1 AND GLP-2” (BAINAN BIOTECH APS, priority 2021, published 2025)
pEC50: −log10 of the molar value. Read-outs that look alike come from different tables or passages of the source. Each block holds one molecule with its values, some of them ahead of it. Where a SMILES comes first, the peptide text is derived from it. [ ]: non-standard residue; d: D form. The star is where a group is joined. Decanoyl = CCCCCCCCCC(=O)*; Aib = CC(C)(N)C(=O)O

Columns and labels:
Format in all cases: cell-based
[1] = biological target: T1, human GIPR (Homo sapiens, UniProt P48546); experiment: cAMP assay (HitHunter) in transiently transfected COS-7 cells expressing human GIPR; conditions: for Emax: COS-7, normalized to highest concentration of the endogenous ligand, read-out: Efficacy GIPR (Emax); for EC50: cAMP, COS-7 cells, human GIPR
T1 construct: host or cells: COS-7
T1 sequence (P48546 22-466): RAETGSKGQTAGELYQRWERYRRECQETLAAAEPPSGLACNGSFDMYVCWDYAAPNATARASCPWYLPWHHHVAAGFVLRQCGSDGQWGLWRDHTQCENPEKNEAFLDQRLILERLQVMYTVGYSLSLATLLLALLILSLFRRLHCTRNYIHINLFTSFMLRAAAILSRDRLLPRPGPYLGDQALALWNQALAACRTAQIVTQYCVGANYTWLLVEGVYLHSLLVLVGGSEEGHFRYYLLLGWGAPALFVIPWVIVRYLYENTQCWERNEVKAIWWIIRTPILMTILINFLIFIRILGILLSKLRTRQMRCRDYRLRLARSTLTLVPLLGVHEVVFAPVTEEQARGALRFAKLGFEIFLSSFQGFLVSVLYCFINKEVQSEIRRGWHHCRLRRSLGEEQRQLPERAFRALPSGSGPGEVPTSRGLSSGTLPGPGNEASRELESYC
Method: (§1) The next day the assay was initiated by washing with HEPES buffered saline (HBS) and followed by an incubation step with assay buffer (HBS added 1 mM isobutyl-1-methylxanthine (IBMX)) for 30 min at 37° C. The ligands were then added and incubated for an additional 30 min at 37° C. After ligand incubation, the HitHunter® CAMP assay (Eurofins DiscoverX, Fremont, […] USA) was carried out according to the manufacturer's instructions. […] The potencies (EC50 values) were determined by nonlinear regression using GraphPad Prism 9 (San Diego, California, USA). Sigmoid curves were fitted logistically. The efficacies (Emax values) were determined by normalization to the highest concentration applied of the endogenous ligand for each receptor.

[2] = biological target: T2, human GLP-2R (Homo sapiens, UniProt O95838); experiment: cAMP assay (HitHunter) in transiently transfected COS-7 cells expressing human GLP-2R; conditions: for Emax: COS-7, normalized to highest concentration of the endogenous ligand, read-out: Efficacy GLP-2R (Emax); for EC50: cAMP, COS-7 cells, human GLP-2R, read-out: EC50 (nM) GLP-2R
T2 construct: host or cells: COS-7
T2 sequence (O95838 1-553): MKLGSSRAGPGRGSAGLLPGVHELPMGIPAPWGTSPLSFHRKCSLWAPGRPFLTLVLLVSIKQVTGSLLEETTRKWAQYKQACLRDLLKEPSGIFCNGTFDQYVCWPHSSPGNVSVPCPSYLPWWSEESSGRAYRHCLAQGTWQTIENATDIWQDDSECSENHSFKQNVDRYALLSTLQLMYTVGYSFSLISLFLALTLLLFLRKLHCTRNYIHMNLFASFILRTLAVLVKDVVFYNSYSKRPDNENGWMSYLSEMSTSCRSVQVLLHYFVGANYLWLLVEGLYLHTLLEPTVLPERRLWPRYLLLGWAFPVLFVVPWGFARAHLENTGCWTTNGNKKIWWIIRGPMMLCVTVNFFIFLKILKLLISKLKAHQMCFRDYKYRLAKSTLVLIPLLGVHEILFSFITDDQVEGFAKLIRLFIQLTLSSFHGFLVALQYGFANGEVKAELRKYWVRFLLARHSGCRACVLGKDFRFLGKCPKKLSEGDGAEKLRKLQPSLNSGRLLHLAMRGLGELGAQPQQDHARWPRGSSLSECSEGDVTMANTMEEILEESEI
Method: as §1

[3] = biological target: T3, human GLP-1R (Homo sapiens, UniProt P43220); experiment: cAMP assay (HitHunter) in transiently transfected COS-7 cells expressing human GLP-1R; conditions: for Emax: COS-7, normalized to highest concentration of the endogenous ligand, read-out: Efficacy GLP-1R (Emax); for EC50: cAMP, COS-7 cells, human GLP-1R, read-out: EC50 (nM) GLP-1R
T3 construct: host or cells: COS-7
Method: as §1

T3 sequence (P43220 24-463): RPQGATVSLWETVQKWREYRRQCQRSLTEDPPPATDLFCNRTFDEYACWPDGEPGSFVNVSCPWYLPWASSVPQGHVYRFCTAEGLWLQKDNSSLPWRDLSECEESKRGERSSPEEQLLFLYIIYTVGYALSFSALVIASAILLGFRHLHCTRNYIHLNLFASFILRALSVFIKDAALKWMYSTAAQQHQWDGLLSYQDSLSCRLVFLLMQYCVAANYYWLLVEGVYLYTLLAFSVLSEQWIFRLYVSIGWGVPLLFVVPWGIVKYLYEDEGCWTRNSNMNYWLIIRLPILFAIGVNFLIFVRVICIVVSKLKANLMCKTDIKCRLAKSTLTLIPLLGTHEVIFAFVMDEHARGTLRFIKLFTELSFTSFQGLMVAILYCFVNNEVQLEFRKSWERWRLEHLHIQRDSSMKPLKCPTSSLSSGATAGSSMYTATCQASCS

SMILES: CCCCCCCCCC(=O)NCCCC[C@H](NC(=O)[C@@H](NC(=O)[C@@H](NC(=O)[C@H](CCCCN)NC(=O)[C@@H](NC(=O)[C@H](CCC(N)=O)NC(=O)[C@@H](NC(=O)[C@H](CC(C)C)NC(=O)[C@H](Cc1c[nH]c2ccccc12)NC(=O)[C@H](CC(N)=O)NC(=O)[C@@H](NC(=O)[C@H](Cc1ccccc1)NC(=O)[C@H](CC(=O)O)NC(=O)[C@H](CCCNC(=N)N)NC(=O)[C@H](C)NC(=O)[C@H](C)NC(=O)[C@H](CC(C)C)NC(=O)[C@H](C)NC(=O)[C@H](CC(=O)O)NC(=O)[C@H](CC(C)C)NC(=O)[C@@H](NC(=O)[C@@H](NC(=O)[C@H](CO)NC(=O)[C@H](Cc1ccc(O)cc1)NC(=O)[C@H](CC(=O)O)NC(=O)[C@H](CO)NC(=O)[C@@H](NC(=O)[C@H](Cc1ccccc1)NC(=O)[C@@H](NC(=O)CNC(=O)[C@H](CC(=O)O)NC(=O)C(C)(C)NC(=O)[C@@H](N)Cc1c[nH]cn1)[C@@H](C)O)[C@@H](C)CC)[C@@H](C)O)[C@@H](C)CC)[C@@H](C)CC)[C@@H](C)CC)[C@@H](C)O)[C@@H](C)CC)[C@@H](C)O)C(N)=O [Compound 5] (H-H[Aib]DGTFISDYSTILDALAARDFINWLIQTKITK(Decanoyl)-NH2)
Emax [1]: 111% | EC50 [1]: 0.158 nM | Emax [2]: 110% | EC50 [2]: 2 nM | Emax [3]: 105% | EC50 [3]: 1.78 nM

SMILES: CCCCCCCCCC(=O)NCCCC[C@H](NC(=O)[C@@H](NC(=O)[C@@H](NC(=O)[C@H](CCCCN)NC(=O)[C@@H](NC(=O)[C@H](CCC(N)=O)NC(=O)[C@@H](NC(=O)[C@H](CC(C)C)NC(=O)[C@H](Cc1c[nH]c2ccccc12)NC(=O)[C@H](CC(N)=O)NC(=O)[C@@H](NC(=O)[C@H](Cc1ccccc1)NC(=O)[C@H](CC(=O)O)NC(=O)[C@H](CCCNC(=N)N)NC(=O)[C@H](C)NC(=O)[C@H](C)NC(=O)[C@H](CC(C)C)NC(=O)[C@H](CC(N)=O)NC(=O)[C@H](CC(=O)O)NC(=O)[C@H](CC(C)C)NC(=O)[C@H](CCC(=O)O)NC(=O)[C@@H](NC(=O)[C@H](CO)NC(=O)[C@H](Cc1ccc(O)cc1)NC(=O)[C@H](CC(=O)O)NC(=O)[C@H](CO)NC(=O)[C@@H](NC(=O)[C@H](Cc1ccccc1)NC(=O)[C@@H](NC(=O)CNC(=O)[C@H](CC(=O)O)NC(=O)C(C)(C)NC(=O)[C@@H](N)Cc1c[nH]cn1)[C@@H](C)O)[C@@H](C)CC)[C@@H](C)O)[C@@H](C)CC)[C@@H](C)CC)[C@@H](C)O)[C@@H](C)CC)[C@@H](C)O)C(N)=O [Compound 13] (H-H[Aib]DGTFISDYSTELDNLAARDFINWLIQTKITK(Decanoyl)-NH2)
Emax [1]: 117% | Emax [2]: 86% | EC50 [2]: 25.1 nM | Emax [3]: 85% | EC50 [3]: 25.1 nM

SMILES: CCCCCCCCCC(=O)NCCCC[C@H](NC(=O)[C@@H](NC(=O)[C@@H](NC(=O)[C@H](CCCCN)NC(=O)[C@@H](NC(=O)[C@H](CCC(N)=O)NC(=O)[C@@H](NC(=O)[C@H](CC(C)C)NC(=O)[C@H](Cc1c[nH]c2ccccc12)NC(=O)[C@H](CC(N)=O)NC(=O)[C@@H](NC(=O)[C@H](Cc1ccccc1)NC(=O)[C@H](CC(=O)O)NC(=O)[C@H](CCCNC(=N)N)NC(=O)[C@H](C)NC(=O)[C@H](C)NC(=O)[C@H](CC(C)C)NC(=O)[C@H](CC(N)=O)NC(=O)[C@H](CC(=O)O)NC(=O)[C@H](CC(C)C)NC(=O)[C@@H](NC(=O)[C@@H](NC(=O)[C@H](CO)NC(=O)[C@H](Cc1ccc(O)cc1)NC(=O)[C@H](CC(=O)O)NC(=O)[C@H](CO)NC(=O)[C@@H](NC(=O)[C@H](Cc1ccccc1)NC(=O)[C@@H](NC(=O)CNC(=O)[C@H](CC(=O)O)NC(=O)C(C)(C)NC(=O)[C@@H](N)Cc1c[nH]cn1)[C@@H](C)O)[C@@H](C)CC)[C@@H](C)CC)[C@@H](C)CC)[C@@H](C)CC)[C@@H](C)CC)[C@@H](C)O)[C@@H](C)CC)[C@@H](C)O)C(N)=O [Compound 10] (H-H[Aib]DGTFISDYSIILDNLAARDFINWLIQTKITK(Decanoyl)-NH2)
Emax [1]: 127% | pEC50 [2]: 7.95 | Emax [2]: 103% | pEC50 [3]: 8.40 | Emax [3]: 99%

SMILES: CCCCCCCCCC(=O)NCCCC[C@H](NC(=O)[C@@H](NC(=O)[C@@H](NC(=O)[C@H](CCCCN)NC(=O)[C@@H](NC(=O)[C@H](CCC(N)=O)NC(=O)[C@@H](NC(=O)[C@H](CC(C)C)NC(=O)[C@H](Cc1c[nH]c2ccccc12)NC(=O)[C@H](CC(N)=O)NC(=O)[C@@H](NC(=O)[C@H](Cc1ccccc1)NC(=O)[C@H](CC(=O)O)NC(=O)[C@H](CCCNC(=N)N)NC(=O)[C@H](C)NC(=O)[C@H](C)NC(=O)[C@H](CC(C)C)NC(=O)[C@H](CC(N)=O)NC(=O)[C@H](CC(=O)O)NC(=O)[C@H](CC(C)C)NC(=O)[C@@H](NC(=O)[C@@H](NC(=O)[C@H](CO)NC(=O)[C@H](Cc1ccc(O)cc1)NC(=O)[C@H](CC(=O)O)NC(=O)[C@H](CO)NC(=O)[C@@H](NC(=O)[C@H](Cc1ccccc1)NC(=O)[C@@H](NC(=O)CNC(=O)[C@H](CC(=O)O)NC(=O)C(C)(C)NC(=O)[C@@H](N)Cc1c[nH]cn1)[C@@H](C)O)[C@@H](C)CC)[C@@H](C)O)[C@@H](C)CC)[C@@H](C)CC)[C@@H](C)CC)[C@@H](C)O)[C@@H](C)CC)[C@@H](C)O)C(N)=O (single isomer, unassigned) [Compound 6]
Emax [1]: 97% | Emax [2]: 99% | Emax [3]: 96%

Second part, the molecule after the results:

Emax [1]: 99% | EC50 [1]: 1 nM | Emax [2]: 93% | Emax [3]: 59%
SMILES: CCCCCCCCCC(=O)NCCCC[C@H](NC(=O)[C@@H](NC(=O)[C@@H](NC(=O)[C@H](CCCCN)NC(=O)[C@@H](NC(=O)[C@H](CCC(N)=O)NC(=O)[C@@H](NC(=O)[C@H](CC(C)C)NC(=O)[C@H](Cc1c[nH]c2ccccc12)NC(=O)[C@H](CC(N)=O)NC(=O)[C@@H](NC(=O)[C@H](Cc1ccccc1)NC(=O)[C@H](CC(=O)O)NC(=O)[C@H](CCCNC(=N)N)NC(=O)[C@H](C)NC(=O)[C@H](C)NC(=O)[C@H](CC(C)C)NC(=O)[C@H](CC(N)=O)NC(=O)[C@H](CC(=O)O)NC(=O)[C@H](CC(C)C)NC(=O)[C@@H](NC(=O)[C@@H](NC(=O)[C@H](CO)NC(=O)[C@H](Cc1ccc(O)cc1)NC(=O)[C@H](CC(=O)O)NC(=O)[C@H](CO)NC(=O)[C@@H](NC(=O)[C@H](Cc1ccccc1)NC(=O)[C@@H](NC(=O)CNC(=O)[C@H](CC(=O)O)NC(=O)C(C)(C)NC(=O)[C@@H](N)Cc1ccc(O)cc1)[C@@H](C)O)[C@@H](C)CC)[C@@H](C)O)[C@@H](C)CC)[C@@H](C)CC)[C@@H](C)CC)[C@@H](C)O)[C@@H](C)CC)[C@@H](C)O)C(N)=O [Compound 16] (H-Y[Aib]DGTFISDYSTILDNLAARDFINWLIQTKITK(Decanoyl)-NH2; N-terminus assumed)

Emax [1]: 91% | Emax [2]: 92% | Emax [3]: 96%
SMILES: CCCCCCCCCC(=O)NCCCC[C@H](NC(=O)[C@H](CCCCN)NC(=O)CNC(=O)[C@H](CCCCN)NC(=O)[C@@H](NC(=O)[C@H](CCC(N)=O)NC(=O)[C@@H](NC(=O)[C@H](CC(C)C)NC(=O)[C@H](Cc1c[nH]c2ccccc12)NC(=O)[C@H](CC(N)=O)NC(=O)[C@@H](NC(=O)[C@H](Cc1ccccc1)NC(=O)[C@H](CC(=O)O)NC(=O)[C@H](CCCNC(=N)N)NC(=O)[C@H](C)NC(=O)[C@H](C)NC(=O)[C@H](CC(C)C)NC(=O)[C@H](CC(N)=O)NC(=O)[C@H](CC(=O)O)NC(=O)[C@H](CC(C)C)NC(=O)[C@@H](NC(=O)[C@@H](NC(=O)[C@H](CO)NC(=O)[C@H](Cc1ccc(O)cc1)NC(=O)[C@H](CC(=O)O)NC(=O)[C@H](CO)NC(=O)[C@@H](NC(=O)[C@H](Cc1ccccc1)NC(=O)[C@@H](NC(=O)CNC(=O)[C@H](CC(=O)O)NC(=O)C(C)(C)NC(=O)[C@@H](N)Cc1c[nH]cn1)[C@@H](C)O)[C@@H](C)CC)[C@@H](C)O)[C@@H](C)CC)[C@@H](C)CC)[C@@H](C)CC)[C@@H](C)O)C(N)=O [Compound 14] (H-H[Aib]DGTFISDYSTILDNLAARDFINWLIQTKGKK(Decanoyl)-NH2)
